Source: patent US8415469B2, “Compounds and methods for kinase modulation, and indications therefor” (Plexxikon Inc., priority 2005, dated 2013)

Experiments:
Format in all cases: biochemical
Kdr = target: T1, Kdr (Homo sapiens, UniProt P35968); test: Z'-Lyte FRET kinase assay (Invitrogen), Kdr; conditions: read-out: IC50, activity toward kinase Kdr
T1 construct: purchased Invitrogen (assay run by Invitrogen)

Pyk2 = target: T2, Pyk2 (Homo sapiens, UniProt Q14289); test: AlphaScreen kinase assay, Pyk2; conditions: read-out: IC50, activity toward kinase Pyk2
T2 construct: purchased Upstate Biotechnology
T2 sequence (Q14289 whole entry): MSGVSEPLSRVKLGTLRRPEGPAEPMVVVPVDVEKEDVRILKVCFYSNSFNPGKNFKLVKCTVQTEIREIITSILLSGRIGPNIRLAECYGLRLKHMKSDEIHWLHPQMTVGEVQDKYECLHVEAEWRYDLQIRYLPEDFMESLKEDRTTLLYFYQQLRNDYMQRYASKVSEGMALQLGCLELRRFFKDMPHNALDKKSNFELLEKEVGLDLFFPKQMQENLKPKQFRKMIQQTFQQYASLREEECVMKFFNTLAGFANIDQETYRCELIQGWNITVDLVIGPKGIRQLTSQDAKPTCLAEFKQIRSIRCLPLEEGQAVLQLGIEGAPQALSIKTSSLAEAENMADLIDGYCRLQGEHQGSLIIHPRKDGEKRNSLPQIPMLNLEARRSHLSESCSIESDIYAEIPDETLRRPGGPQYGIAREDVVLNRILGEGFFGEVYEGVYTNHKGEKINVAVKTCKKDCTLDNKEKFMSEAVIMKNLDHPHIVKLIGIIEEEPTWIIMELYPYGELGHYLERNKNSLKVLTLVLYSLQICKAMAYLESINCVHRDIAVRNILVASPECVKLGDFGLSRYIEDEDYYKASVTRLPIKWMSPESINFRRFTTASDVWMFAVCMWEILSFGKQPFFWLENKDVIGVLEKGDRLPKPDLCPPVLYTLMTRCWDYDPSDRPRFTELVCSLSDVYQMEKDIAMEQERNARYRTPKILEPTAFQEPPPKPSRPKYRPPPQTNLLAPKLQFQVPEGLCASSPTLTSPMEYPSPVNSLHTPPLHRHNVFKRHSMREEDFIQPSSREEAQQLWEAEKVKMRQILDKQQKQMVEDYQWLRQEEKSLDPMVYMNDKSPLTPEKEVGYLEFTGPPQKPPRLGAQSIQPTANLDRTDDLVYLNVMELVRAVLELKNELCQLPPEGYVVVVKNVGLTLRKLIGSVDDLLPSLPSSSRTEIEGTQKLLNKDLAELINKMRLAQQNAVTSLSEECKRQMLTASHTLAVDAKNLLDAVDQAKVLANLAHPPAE

B-Raf V600E = target: T3, B-Raf V600E (Homo sapiens, UniProt P15056, V600E); test: AlphaScreen kinase assay, B-Raf V600E; conditions: read-out: IC50, activity toward kinase B-Raf V600E
T3 construct: P4254. pFastBacBD-CDC37 BRAF D437-K722-X, V600E; His6 with pFastBac HT leader (TEV site) (N); made in house; host or cells: Sf9 (baculovirus; chaperone CDC37 co-expressed)
T3 sequence (P15056 with tags, fused parts or gaps V600E): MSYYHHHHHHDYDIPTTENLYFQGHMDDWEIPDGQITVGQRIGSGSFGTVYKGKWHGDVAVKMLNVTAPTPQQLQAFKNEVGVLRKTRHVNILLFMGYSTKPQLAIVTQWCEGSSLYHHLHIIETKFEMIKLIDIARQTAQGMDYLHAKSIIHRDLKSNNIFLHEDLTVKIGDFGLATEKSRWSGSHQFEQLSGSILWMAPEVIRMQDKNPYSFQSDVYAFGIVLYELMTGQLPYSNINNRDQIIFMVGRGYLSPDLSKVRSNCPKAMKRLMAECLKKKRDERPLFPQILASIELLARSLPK

Ret = target: T4, Ret (Homo sapiens, UniProt P07949); test: AlphaScreen kinase assay, Ret; conditions: read-out: IC50, activity toward kinase Ret
T4 construct: P1378.pET-SF BI-PTP RET H661-R1012 HIS; made in house
T4 sequence (P07949 with tags, fused parts or gaps): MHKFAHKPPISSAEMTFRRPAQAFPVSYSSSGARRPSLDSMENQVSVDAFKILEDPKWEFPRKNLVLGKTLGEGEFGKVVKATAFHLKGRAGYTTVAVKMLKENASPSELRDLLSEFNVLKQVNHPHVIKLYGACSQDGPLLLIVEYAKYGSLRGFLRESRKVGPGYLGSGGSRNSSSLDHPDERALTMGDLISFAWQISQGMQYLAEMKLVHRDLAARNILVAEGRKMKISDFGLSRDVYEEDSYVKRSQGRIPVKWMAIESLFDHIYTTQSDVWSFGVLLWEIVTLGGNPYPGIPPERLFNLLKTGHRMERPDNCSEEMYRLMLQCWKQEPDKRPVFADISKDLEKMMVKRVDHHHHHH

FGFR1 = target: T5, FGFR1 (Homo sapiens, UniProt P11362, C488A/C584S); test: AlphaScreen kinase assay, FGFR1; conditions: read-out: IC50, activity toward kinase FGFR
T5 construct: P1351.pET N6 BI-PTP FGFR A458-E765-X C488A, C584S; made in house; host or cells: E. coli (PTP1B co-expressed)
T5 sequence (P11362 458-765 C488A/C584S): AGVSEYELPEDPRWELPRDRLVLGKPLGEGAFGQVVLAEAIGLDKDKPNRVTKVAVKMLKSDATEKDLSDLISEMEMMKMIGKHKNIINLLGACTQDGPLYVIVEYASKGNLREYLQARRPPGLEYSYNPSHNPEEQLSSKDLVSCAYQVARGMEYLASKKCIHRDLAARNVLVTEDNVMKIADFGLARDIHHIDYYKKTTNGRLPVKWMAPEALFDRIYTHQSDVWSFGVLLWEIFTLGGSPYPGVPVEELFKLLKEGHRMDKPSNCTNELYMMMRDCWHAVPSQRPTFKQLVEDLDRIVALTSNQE

c-Raf-1 = target: T6, c-Raf-1 (Homo sapiens, UniProt P04049); test: AlphaScreen kinase assay, c-Raf-1; conditions: read-out: IC50, activity toward kinase c-Raf-1
T6 construct: purchased Upstate Biotechnology
T6 sequence (P04049 whole entry): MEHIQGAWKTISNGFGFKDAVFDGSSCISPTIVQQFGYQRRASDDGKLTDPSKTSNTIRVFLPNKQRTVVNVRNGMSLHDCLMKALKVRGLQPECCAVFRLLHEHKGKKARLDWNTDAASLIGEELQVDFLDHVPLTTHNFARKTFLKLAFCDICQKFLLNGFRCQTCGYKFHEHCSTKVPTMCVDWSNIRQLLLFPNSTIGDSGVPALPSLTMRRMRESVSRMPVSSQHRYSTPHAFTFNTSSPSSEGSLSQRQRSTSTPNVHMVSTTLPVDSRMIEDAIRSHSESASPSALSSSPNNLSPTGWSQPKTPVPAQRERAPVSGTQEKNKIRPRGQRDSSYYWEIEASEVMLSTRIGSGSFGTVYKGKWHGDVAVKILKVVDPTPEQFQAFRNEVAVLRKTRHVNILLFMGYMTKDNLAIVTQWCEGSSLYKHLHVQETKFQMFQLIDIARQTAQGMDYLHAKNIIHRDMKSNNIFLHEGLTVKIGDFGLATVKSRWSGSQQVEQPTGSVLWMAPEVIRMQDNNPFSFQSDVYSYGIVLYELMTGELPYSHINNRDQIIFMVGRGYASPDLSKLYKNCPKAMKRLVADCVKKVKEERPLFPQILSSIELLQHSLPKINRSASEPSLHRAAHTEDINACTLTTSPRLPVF
Text: AlphaScreen assay was used to screen additional kinases. The assay is similarly dependent on the phosphorylation of a peptide substrate. In this assay, an antibody that recognizes phosphorylated substrate is bound to an acceptor bead. The peptide substrate is attached to biotin, which binds to a donor head that contains streptavidin. Thus phosphorylated substrate is bound by antibody and streptavidin, bringing the donor and acceptor heads into close proximity when kinase is not inhibited. The donor produces singlet oxygen which results in emission from the acceptor when they are in close proximity. Conversely, when kinase is inhibited, the donor and acceptor beads are not associated and the emission from the acceptor is reduced.
AlphaScreen assays were done using compounds dissolved in DMSO to a concentration of 20 mM. The compounds were diluted accordingly to the desired final concentrations in each sample well, using 1:3 serial dilution for a total of 8 concentration points. Plates were prepared such that each kinase reaction is 20 μl in 1× kinase buffer, 5% DMSO and 10 μM ATP. After incubation of the kinase reaction for 1 hour at room temperature, 5 μl of donor beads in stop buffer (50 mM EDTA in 1× kinase buffer) was added, the sample was mixed and incubated for 20 minutes at room temperature before adding 5 μl of acceptor beads in stop buffer. The samples were incubated for 60 minutes at room temperature and the signal per well was read on AlphaQuest reader.

B-Raf = target: T7, B-Raf (Homo sapiens, UniProt P15056); test: AlphaScreen kinase assay, B-Raf; conditions: read-out: IC50, activity toward kinase B-Raf
T7 construct: purchased Upstate Biotechnology
T7 sequence (P15056 whole entry): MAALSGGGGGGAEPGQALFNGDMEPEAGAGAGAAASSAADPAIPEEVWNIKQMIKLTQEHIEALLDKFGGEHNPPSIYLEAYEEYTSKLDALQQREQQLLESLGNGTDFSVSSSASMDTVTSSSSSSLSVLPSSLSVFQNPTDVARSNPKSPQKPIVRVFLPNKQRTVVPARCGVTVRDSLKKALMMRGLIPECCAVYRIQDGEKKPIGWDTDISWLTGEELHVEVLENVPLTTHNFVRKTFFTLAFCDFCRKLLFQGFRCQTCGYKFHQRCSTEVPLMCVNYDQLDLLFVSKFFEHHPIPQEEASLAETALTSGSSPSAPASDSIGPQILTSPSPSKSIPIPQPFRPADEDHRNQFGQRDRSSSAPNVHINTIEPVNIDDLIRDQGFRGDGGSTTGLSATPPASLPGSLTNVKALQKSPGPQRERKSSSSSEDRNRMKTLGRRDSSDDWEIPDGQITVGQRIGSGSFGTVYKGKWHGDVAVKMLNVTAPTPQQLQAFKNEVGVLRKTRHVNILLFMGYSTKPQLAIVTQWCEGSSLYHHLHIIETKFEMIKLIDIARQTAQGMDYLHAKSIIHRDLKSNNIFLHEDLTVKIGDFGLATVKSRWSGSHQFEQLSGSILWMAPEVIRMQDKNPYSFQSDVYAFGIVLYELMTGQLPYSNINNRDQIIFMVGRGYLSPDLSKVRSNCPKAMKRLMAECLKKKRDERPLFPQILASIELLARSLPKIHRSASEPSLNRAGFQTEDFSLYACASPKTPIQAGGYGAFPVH

Kit = target: T8, Kit (Homo sapiens, UniProt P10721); test: AlphaScreen kinase assay, Kit; conditions: read-out: IC50, activity toward kinase Kit
T8 construct: P1332.N6 BI PTP KIT M552-K948-X COD; His6 (N); made in house; host or cells: E. coli (PTP1B co-expressed)
T8 sequence (P10721 with tags, fused parts or gaps): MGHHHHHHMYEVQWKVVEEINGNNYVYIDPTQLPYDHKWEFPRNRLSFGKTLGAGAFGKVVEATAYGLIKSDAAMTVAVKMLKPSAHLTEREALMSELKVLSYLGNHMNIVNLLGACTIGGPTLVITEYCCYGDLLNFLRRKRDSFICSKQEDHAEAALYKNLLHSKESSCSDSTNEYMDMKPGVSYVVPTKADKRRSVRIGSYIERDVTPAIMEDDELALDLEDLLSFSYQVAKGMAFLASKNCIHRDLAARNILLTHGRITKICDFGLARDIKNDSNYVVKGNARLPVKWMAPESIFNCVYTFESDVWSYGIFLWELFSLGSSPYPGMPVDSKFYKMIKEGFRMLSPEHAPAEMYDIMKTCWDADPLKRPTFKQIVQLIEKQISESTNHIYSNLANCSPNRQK

Jnk3 = target: T9, Jnk3 (Homo sapiens, UniProt P53779); test: AlphaScreen kinase assay, Jnk3; conditions: read-out: IC50, activity toward kinase Jnk3
T9 construct: purchased Upstate Biotechnology

Src = target: T10, Src (Homo sapiens, UniProt P12931); test: AlphaScreen kinase assay, Src; conditions: read-out: IC50, activity toward kinase Src
T10 construct: P1144. pET-N6 BI-PTP SRC V86-L536-X; made in house
T10 sequence (P12931 with tags, fused parts or gaps): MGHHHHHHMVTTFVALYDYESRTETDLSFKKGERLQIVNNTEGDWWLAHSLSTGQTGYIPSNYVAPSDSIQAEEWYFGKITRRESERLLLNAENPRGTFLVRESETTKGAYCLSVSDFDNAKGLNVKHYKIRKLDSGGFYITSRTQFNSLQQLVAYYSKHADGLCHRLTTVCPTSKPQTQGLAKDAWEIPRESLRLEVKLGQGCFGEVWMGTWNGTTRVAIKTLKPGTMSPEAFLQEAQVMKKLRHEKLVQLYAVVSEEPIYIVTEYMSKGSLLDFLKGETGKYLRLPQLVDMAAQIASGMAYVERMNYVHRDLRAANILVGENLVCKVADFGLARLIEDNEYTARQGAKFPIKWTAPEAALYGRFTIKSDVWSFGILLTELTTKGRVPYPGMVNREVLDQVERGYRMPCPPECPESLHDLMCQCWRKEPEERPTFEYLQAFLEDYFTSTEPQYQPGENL

Fms = target: T11, Fms (Homo sapiens, UniProt P07333); test: AlphaScreen kinase assay, Fms; conditions: read-out: IC50, activity toward kinase Fms
T11 construct: purchased Upstate Biotechnology
T11 sequence (P07333 20-972): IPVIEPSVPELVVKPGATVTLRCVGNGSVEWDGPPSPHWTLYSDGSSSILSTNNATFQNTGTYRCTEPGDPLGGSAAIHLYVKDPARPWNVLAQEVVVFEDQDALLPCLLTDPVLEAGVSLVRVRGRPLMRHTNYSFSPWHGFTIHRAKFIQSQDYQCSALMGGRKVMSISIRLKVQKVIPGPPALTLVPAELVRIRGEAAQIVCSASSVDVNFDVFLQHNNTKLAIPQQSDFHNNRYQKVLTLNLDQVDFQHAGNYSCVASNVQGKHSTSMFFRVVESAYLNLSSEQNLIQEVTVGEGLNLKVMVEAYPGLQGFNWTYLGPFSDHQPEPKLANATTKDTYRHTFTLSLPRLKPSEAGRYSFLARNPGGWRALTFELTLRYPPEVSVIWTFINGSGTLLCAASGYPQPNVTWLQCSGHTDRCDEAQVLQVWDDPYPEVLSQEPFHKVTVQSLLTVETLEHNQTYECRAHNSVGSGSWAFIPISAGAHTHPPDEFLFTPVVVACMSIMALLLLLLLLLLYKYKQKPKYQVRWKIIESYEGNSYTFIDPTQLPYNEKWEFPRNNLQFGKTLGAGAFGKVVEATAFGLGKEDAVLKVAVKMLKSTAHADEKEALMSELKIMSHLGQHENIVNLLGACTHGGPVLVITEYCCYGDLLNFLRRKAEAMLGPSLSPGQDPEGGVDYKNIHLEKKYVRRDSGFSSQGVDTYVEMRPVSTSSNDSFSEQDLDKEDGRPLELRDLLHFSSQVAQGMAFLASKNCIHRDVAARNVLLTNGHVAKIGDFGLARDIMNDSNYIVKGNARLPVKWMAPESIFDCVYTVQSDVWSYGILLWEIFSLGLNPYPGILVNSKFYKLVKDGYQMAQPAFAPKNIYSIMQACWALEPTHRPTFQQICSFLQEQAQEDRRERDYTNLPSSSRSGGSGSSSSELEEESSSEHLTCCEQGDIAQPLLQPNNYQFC

Jnk1 = target: T12, Jnk1 (Homo sapiens, UniProt P45983); test: AlphaScreen kinase assay, Jnk1; conditions: read-out: IC50, activity toward kinase Jnk1
T12 construct: purchased Upstate Biotechnology

Fak = target: T13, Fak (Homo sapiens, UniProt Q05397); test: AlphaScreen kinase assay, Fak; conditions: read-out: IC50, activity toward kinase Fak
T13 construct: P1358.pFastBacHtb FAK S411-Q686-X; His6 with pFastBacHTb leader (TEV site) (N); made in house; host or cells: Sf9 (baculovirus)

Flt1 = target: T14, Flt1 (Homo sapiens, UniProt P17948); test: AlphaScreen kinase assay, Flt1; conditions: read-out: IC50, activity toward kinase Flt1
T14 construct: P1826.pETN6 BI-PTP FLT1 M799-D1165-X WT; His6 (N); made in house; host or cells: E. coli (PTP1B co-expressed)
T14 sequence (P17948 with tags, fused parts or gaps): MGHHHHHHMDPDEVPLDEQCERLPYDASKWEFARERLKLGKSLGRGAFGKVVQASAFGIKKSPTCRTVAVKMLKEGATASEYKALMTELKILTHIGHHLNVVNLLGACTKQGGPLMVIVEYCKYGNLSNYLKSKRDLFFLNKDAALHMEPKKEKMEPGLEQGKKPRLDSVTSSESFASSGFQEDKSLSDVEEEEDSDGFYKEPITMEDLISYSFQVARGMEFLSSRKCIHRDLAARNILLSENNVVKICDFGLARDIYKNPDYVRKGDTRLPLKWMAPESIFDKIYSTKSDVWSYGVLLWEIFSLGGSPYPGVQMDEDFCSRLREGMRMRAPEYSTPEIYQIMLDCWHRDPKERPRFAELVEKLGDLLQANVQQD

Measured: IC50

O=C(c1ccc(O)cc1Cl)c1c[nH]c2ncc(Br)cc12 [Compound P-0137]
≤ 10 µM: Kdr | Pyk2 | B-Raf V600E | Ret | FGFR1 | c-Raf-1

COC(c1c(F)ccc(NS(=O)(=O)C(C)C)c1F)c1c[nH]c2ncc(Br)cc12 (stereo not drawn) [Compound P-0356, Propane-2-sulfonic acid {3-[(5-bromo-1H-pyrrolo[2,3-b]pyridin-3-yl)-methoxy-methyl]-2,4-difluoro-phenyl}-amide]
≤ 10 µM: B-Raf | Pyk2 | B-Raf V600E | c-Raf-1

COc1cccc(Cc2c[nH]c3ncc(-c4ccc(C(N)=O)cc4)cc23)c1 [Compound P-0697]
≤ 10 µM: B-Raf | Kit | Pyk2 | Jnk3 | Ret | FGFR1

CCCS(=O)(=O)Nc1ccc(F)c(C(=O)c2c[nH]c3ncc(Nc4ccccc4)cc23)c1F [Compound P-0848, propane-1-sulfonic acid [2,4-difluoro-3-(5-phenylamino-1H-pyrrolo[2,3-b]pyridine-3-carbonyl)-phenyl]-amide]
not listed: Kdr | Ret | Jnk3 | Fak | Flt1
≤ 10 µM: all other assays above

CN(C)S(=O)(=O)Nc1ccc(F)c(C(=O)c2c[nH]c3ncc(-c4ccccc4)cc23)c1F [Compound P-0857]
≤ 10 µM: Src | B-Raf | Kit | Fms | Pyk2 | B-Raf V600E | FGFR1 | c-Raf-1

CCCS(=O)(=O)Nc1ccc(F)c(C(=O)c2c[nH]c3ncc(-c4cccc(OC)c4)cc23)c1F [Compound P-0874, Propane-1-sulfonic acid {2,4-difluoro-3-[5-(3-methoxy-phenyl)-1H-pyrrolo[2,3-b]pyridine-3-carbonyl]-phenyl}-amide]
≤ 10 µM: Src | B-Raf | Kit | Fms | Pyk2 | B-Raf V600E | FGFR1 | c-Raf-1

CN(C)S(=O)(=O)Nc1ccc(F)c(C(=O)c2c[nH]c3ncc(Br)cc23)c1F [Compound P-0898, Dimethylamine-1-sulfonic acid [3-(5-bromo-1H-pyrrolo[2,3-b]pyridine-3-carbonyl)-2,4-difluoro-phenyl]-amide]
≤ 10 µM: Src | B-Raf | Kit | Fms | Pyk2 | B-Raf V600E | FGFR1 | c-Raf-1

CCCS(=O)(=O)Nc1ccc(F)c(C(=O)c2c[nH]c3ncc(-c4ccc(C(F)(F)F)cc4)cc23)c1F [Compound P-0912, Propane-1-sulfonic acid {2,4-difluoro-3-[5-(4-trifluoromethyl-phenyl)-1H-pyrrolo[2,3-b]pyridine-3-carbonyl]-phenyl}-amide]
≤ 10 µM: B-Raf | Pyk2 | B-Raf V600E | FGFR1 | c-Raf-1

CCCS(=O)(=O)Oc1ccc(F)c(C(=O)c2c[nH]c3ncc(Br)cc23)c1F [Compound P-0919, propane-1-sulfonic acid 3-(5-bromo-1H-pyrrolo[2,3-b]pyridine-3-carbonyl)-2,4-difluoro-phenyl ester]
≤ 10 µM: B-Raf | Kit | Fms | Pyk2 | B-Raf V600E | FGFR1 | c-Raf-1

CCCS(=O)(=O)Nc1ccc(F)c(C(O)c2c[nH]c3ncc(Nc4ccccc4)cc23)c1F (stereo not drawn) [Compound P-0928]
≤ 10 µM: B-Raf | Pyk2 | B-Raf V600E | c-Raf-1

CCCS(=O)(=O)Nc1ccc(F)c(C(O)c2c[nH]c3ncc(-c4ccccc4)cc23)c1F (stereo not drawn) [Compound P-0946]
≤ 10 µM: B-Raf | Pyk2 | B-Raf V600E | c-Raf-1

COC(c1c(F)ccc(NS(=O)(=O)C(C)C)c1F)c1c[nH]c2ncc(-c3cccnc3)cc12 (stereo not drawn) [Compound P-0947, Propane-2-sulfonic acid {2,4-difluoro-3-[methoxy-(5-pyridin-3-yl-1H-pyrrolo[2,3-b]pyridin-3-yl)-methyl]-phenyl}-amide]
≤ 10 µM: B-Raf | Pyk2 | B-Raf V600E | FGFR1 | c-Raf-1

CCCS(=O)(=O)Nc1ccc(F)c(Cc2c[nH]c3ncc(N4CCOCC4)cc23)c1F [Compound P-0964, Propane-1-sulfonic acid [2,4-difluoro-3-(5-morpholin-4-yl-1H-pyrrolo[2,3-b]pyridin-3-ylmethyl)-phenyl]-amide]
≤ 10 µM: Kit | Pyk2 | B-Raf V600E | FGFR1 | c-Raf-1

CCCC(=O)Nc1ccc(F)c(Cc2c[nH]c3ncc(Br)cc23)c1F [Compound P-1282]
≤ 10 µM: Fak | B-Raf | Fms | Pyk2 | B-Raf V600E | FGFR1

CCCC(=O)Nc1ccc(F)c(C(=O)c2c[nH]c3ncc(OC)cc23)c1F [Compound P-1370]
≤ 10 µM: Flt1 | Kit | Fms | Pyk2 | Jnk1 | B-Raf V600E

Clc1ccccc1Nc1ccc2cc[nH]c2n1 [Compound P-1375, (2-Chloro-phenyl)-(1H-pyrrolo[2,3-b]pyridin-6-yl)-amine]
≤ 10 µM: Pyk2 | Jnk3
